In ChEMBL document CHEMBL5634161, “Discovery of benzamide-based PI3K/HDAC dual inhibitors with marked pro-apoptosis activity in lymphoma cells” (Eur J Med Chem, 2023):

Legend:
[1] = molecular target: Phosphatidylinositol 4,5-bisphosphate 3-kinase catalytic subunit beta isoform (Homo sapiens, UniProt P42338); assay: Inhibition of PI3Kbeta (unknown origin) using PIP2 as substrate incubated for 1 hrs in presence of ATP by ADP-Glo kinase assay
CYP1A2 = CYP1A2 (Homo sapiens, UniProt P05177); assay: Inhibition of CYP1A2 in human liver microsomes using phenacetin as substrate at 10 uM in presence of NADPH regenerating system by LC-MS/MS analysis relative to control; format: ADME, Microsome; conditions: probe phenacetin
CYP2C19 = CYP2C19 (Homo sapiens, UniProt P33261); assay: Inhibition of CYP2C19 in human liver microsomes using S-mephenytoin as substrate at 10 uM in presence of NADPH regenerating system by LC-MS/MS analysis relative to control; format: ADME, Microsome; conditions: probe S-mephenytoin
CYP2C19, sequence (P33261 whole entry, canonical isoform): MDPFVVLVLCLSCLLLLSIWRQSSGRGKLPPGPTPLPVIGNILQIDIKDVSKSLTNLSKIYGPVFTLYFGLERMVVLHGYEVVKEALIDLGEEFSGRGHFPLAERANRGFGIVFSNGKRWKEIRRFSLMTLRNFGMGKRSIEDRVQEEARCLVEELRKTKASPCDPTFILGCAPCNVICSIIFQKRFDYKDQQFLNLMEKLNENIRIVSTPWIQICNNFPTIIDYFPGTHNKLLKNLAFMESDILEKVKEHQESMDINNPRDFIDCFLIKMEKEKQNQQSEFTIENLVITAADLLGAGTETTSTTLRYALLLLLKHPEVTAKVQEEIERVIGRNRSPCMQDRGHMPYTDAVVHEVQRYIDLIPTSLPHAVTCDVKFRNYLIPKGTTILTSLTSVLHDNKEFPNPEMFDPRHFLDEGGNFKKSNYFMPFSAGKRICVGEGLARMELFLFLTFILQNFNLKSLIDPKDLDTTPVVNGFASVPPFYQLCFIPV

[2] = molecular target: Phosphatidylinositol 4,5-bisphosphate 3-kinase catalytic subunit alpha isoform (Homo sapiens, UniProt P42336); assay: Inhibition of PI3Kalpha (unknown origin) using PIP2 as substrate incubated for 1 hrs in presence of ATP by ADP-Glo kinase assay
Histone deacetylase 2 = Histone deacetylase 2 (Homo sapiens, UniProt Q92769); assay: Inhibition of HDAC2 (unknown origin) using Boc-Lys(acetyl)-AMC as substrate preincubated for 1 hrs followed by substrate addition and measured after 2 hrs by spectrophotometer based fluorometric assay
Histone deacetylase 4 = Histone deacetylase 4 (Homo sapiens, UniProt P56524); assay: Inhibition of HDAC4 (unknown origin) using Boc-Lys(acetyl)-AMC as substrate preincubated for 1 hrs followed by substrate addition and measured after 2 hrs by spectrophotometer based fluorometric assay
Histone deacetylase 5 = Histone deacetylase 5 (Homo sapiens, UniProt Q9UQL6); assay: Inhibition of HDAC5 (unknown origin) using Boc-Lys(acetyl)-AMC as substrate preincubated for 1 hrs followed by substrate addition and measured after 2 hrs by spectrophotometer based fluorometric assay
Histone deacetylase 5, sequence (Q9UQL6 whole entry): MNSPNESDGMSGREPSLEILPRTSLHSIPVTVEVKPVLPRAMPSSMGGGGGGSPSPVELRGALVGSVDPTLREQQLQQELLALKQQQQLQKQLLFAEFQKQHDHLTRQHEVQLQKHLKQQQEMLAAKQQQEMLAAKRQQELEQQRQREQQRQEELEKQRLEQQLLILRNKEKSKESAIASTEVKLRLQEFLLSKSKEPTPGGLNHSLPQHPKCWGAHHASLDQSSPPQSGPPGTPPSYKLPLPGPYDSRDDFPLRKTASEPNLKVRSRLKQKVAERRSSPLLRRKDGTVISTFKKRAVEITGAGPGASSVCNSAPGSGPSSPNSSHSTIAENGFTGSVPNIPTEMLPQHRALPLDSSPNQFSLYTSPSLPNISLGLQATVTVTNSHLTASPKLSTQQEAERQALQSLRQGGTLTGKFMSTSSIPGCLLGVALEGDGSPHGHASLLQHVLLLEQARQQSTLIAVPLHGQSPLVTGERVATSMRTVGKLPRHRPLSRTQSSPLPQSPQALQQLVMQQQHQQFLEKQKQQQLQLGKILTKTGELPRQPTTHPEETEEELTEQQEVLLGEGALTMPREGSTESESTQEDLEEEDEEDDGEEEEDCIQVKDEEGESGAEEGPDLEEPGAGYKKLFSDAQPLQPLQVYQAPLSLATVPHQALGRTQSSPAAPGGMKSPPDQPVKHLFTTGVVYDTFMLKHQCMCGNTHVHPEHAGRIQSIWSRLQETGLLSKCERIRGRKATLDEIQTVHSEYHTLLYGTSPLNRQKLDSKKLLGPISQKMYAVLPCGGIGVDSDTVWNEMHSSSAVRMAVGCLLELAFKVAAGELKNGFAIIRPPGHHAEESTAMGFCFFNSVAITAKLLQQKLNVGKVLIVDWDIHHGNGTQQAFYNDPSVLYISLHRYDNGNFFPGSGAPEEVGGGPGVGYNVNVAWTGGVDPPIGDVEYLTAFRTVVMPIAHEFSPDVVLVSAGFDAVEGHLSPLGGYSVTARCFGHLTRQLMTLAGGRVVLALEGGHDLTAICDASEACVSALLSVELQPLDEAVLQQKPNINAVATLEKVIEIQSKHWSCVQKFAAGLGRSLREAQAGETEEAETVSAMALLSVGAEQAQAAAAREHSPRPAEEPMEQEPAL

[3] = molecular target: Protein deacetylase HDAC6 (Homo sapiens, UniProt Q9UBN7); assay: Inhibition of HDAC6 (unknown origin) using Boc-Lys(acetyl)-AMC as substrate preincubated for 1 hrs followed by substrate addition and measured after 2 hrs by spectrophotometer based fluorometric assay
Protein deacetylase HDAC6, sequence (Q9UBN7 whole entry, canonical isoform): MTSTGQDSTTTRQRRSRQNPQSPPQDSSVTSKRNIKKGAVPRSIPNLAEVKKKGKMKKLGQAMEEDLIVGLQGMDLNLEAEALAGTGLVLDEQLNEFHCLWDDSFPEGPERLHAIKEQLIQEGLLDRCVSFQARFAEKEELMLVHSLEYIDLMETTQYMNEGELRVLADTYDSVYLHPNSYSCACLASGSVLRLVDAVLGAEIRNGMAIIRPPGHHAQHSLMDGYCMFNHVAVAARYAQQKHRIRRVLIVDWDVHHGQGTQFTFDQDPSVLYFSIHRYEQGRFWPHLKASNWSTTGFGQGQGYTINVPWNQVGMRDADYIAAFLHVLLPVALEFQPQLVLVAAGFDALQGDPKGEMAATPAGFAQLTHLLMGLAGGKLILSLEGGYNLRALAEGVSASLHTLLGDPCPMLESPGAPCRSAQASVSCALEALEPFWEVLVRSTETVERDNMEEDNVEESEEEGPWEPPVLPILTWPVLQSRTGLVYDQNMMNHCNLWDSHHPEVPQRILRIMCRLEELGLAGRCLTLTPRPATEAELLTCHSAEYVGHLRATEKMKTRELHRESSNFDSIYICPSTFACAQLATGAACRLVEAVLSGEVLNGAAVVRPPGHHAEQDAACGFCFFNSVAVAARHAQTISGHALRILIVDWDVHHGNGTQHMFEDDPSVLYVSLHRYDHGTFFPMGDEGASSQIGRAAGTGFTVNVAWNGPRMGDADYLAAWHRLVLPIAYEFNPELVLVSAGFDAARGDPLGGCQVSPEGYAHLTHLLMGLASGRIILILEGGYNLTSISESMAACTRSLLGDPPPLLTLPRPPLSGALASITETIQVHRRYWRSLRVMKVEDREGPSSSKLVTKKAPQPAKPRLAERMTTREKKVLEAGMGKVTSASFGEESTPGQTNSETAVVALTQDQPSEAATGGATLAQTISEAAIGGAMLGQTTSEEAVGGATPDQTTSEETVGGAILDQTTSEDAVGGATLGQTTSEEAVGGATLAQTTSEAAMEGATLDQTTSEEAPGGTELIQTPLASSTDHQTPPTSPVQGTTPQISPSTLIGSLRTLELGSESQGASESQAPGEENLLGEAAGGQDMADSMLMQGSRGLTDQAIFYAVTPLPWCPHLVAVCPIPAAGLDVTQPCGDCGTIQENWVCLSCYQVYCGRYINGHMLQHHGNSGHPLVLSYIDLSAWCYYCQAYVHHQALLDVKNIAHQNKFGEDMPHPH

[4] = molecular target: Phosphatidylinositol 4,5-bisphosphate 3-kinase catalytic subunit delta isoform (Homo sapiens, UniProt O00329); assay: Inhibition of PI3Kdelta (unknown origin) using PIP2 as substrate incubated for 1 hrs in presence of ATP by ADP-Glo kinase assay
[5] = molecular target: Phosphatidylinositol 4,5-bisphosphate 3-kinase catalytic subunit gamma isoform (Homo sapiens, UniProt P48736); assay: Inhibition of PI3Kgamma (unknown origin) using PIP2 as substrate incubated for 1 hrs in presence of ATP by ADP-Glo kinase assay
Phosphatidylinositol 4,5-bisphosphate 3-kinase catalytic subunit gamma isoform, sequence (P48736 whole entry, canonical isoform): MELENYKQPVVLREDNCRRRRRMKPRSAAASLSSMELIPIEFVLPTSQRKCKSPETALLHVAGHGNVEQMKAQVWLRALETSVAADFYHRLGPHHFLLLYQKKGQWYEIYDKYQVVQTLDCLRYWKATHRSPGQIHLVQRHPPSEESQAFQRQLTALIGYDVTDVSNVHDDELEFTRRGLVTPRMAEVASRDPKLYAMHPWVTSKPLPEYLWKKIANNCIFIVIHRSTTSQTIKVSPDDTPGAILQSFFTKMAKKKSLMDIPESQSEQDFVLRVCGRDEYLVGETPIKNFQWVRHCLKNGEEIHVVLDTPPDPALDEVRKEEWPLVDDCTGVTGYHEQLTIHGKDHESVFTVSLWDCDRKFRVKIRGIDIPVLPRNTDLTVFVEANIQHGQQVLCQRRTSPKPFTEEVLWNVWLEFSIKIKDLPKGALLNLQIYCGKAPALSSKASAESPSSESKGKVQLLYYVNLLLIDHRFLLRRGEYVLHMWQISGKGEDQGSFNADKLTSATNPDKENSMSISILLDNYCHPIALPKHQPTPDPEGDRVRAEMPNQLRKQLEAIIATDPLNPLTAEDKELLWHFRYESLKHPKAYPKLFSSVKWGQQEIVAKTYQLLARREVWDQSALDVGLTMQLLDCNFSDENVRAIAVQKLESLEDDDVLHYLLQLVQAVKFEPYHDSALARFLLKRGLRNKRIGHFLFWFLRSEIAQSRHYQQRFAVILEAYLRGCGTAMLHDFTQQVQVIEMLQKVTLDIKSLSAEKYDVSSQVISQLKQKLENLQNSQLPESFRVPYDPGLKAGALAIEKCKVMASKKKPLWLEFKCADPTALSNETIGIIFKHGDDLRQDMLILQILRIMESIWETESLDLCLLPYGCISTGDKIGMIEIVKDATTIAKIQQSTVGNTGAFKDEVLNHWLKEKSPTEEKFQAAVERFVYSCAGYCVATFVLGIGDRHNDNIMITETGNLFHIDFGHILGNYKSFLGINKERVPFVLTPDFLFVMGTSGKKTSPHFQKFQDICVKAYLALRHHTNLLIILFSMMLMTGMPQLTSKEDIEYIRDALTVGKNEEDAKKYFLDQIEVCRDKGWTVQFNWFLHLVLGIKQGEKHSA

MDA-MB-231 = assay: Antiproliferative activity against human MDA-MB-231 cells incubated for 48 hrs by resazurin dye based fluorescence micro plate reader analysis; format: functional, cell-based; conditions: MDA-MB-231, 48 h
JeKo-1 [6] = assay: Potency index, ratio of 4-(3-(4-(4-methoxy-6-morpholino-1,3,5-triazin-2-yl)phenyl)urea)-N-(2-ethylamino)ethylbenzamide IC50 to test compound IC50 for antiproliferative activity against human JeKo-1 cells incubated for 48 hrs by resazurin based fluorescence microplate reader analysis; format: functional
CYP2C9 = CYP2C9 (Homo sapiens, UniProt P11712); assay: Inhibition of CYP2C9 in human liver microsomes using diclofenac as substrate at 10 uM in presence of NADPH regenerating system by LC-MS/MS analysis relative to control; format: ADME, Microsome; conditions: probe diclofenac
CYP2C9, sequence (P11712 whole entry): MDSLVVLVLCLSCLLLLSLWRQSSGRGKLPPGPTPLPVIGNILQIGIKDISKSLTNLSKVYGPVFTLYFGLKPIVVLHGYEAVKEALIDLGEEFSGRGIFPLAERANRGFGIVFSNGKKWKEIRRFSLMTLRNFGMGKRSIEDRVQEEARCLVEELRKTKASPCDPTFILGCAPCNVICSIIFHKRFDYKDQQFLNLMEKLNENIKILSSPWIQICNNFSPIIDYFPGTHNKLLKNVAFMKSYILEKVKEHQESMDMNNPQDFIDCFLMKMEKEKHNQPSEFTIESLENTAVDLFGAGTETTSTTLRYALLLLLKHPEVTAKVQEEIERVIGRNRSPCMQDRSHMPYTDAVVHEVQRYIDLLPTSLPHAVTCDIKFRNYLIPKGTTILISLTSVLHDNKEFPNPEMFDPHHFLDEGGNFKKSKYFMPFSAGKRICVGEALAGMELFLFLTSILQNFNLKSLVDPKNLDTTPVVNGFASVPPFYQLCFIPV

CYP2D6 = CYP2D6 (Homo sapiens, UniProt P10635); assay: Inhibition of CYP2D6 in human liver microsomes using bufuralol as substrate at 10 uM in presence of NADPH regenerating system by LC-MS/MS analysis relative to control; format: ADME, Microsome; conditions: probe bufuralol
CYP2D6, sequence (P10635 whole entry): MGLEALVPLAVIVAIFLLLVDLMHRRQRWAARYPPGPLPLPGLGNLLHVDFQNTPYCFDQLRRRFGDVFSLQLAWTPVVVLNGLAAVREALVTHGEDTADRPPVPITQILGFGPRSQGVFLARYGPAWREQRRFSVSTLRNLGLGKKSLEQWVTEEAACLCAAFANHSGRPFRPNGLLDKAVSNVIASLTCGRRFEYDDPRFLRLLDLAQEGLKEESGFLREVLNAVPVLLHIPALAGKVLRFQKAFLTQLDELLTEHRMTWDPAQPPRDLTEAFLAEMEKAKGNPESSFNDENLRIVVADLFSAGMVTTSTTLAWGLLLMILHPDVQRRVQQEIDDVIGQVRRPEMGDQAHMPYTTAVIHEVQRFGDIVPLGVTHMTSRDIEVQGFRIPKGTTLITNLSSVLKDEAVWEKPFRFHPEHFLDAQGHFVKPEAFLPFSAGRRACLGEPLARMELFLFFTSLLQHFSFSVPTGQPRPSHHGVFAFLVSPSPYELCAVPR

hERG = hERG (Homo sapiens, UniProt Q12809); assay: Inhibition of hERG transfected in CHO cells at 30 uM by manual patch-clamp assay relative to control; format: toxicity, cell-based; conditions: CHO cells transfected with hERG
[7] = Stability in human liver microsomes assessed as compound remaining at […] preincubated for 5 mins followed by NADPH addition and measured immediately by LC-MS/MS analysis; format: ADME, Microsome; conditions: read-out: Stability
[8] = Stability in human liver microsomes assessed as compound remaining at […] preincubated for 5 mins followed by NADPH addition and measured after 5 mins by LC-MS/MS analysis; format: ADME, Microsome; conditions: time 10 min, read-out: Stability
[9] = Stability in human liver microsomes assessed as compound remaining at […] preincubated for 5 mins followed by NADPH addition and measured after 15 mins by LC-MS/MS analysis; format: ADME, Microsome; conditions: time 20 min, read-out: Stability
[10] = Stability in rat liver microsomes assessed as compound remaining at 0.5 mM preincubated for 5 mins followed by NADPH addition and measured after 45 mins by LC-MS/MS analysis; format: ADME, Microsome; conditions: time 50 min, read-out: Stability
[11] = Stability in mouse liver microsomes assessed as compound remaining at […] preincubated for 5 mins followed by NADPH addition and measured after 15 mins by LC-MS/MS analysis; format: ADME, Microsome; conditions: time 20 min, read-out: Stability
[12] = Stability in mouse liver microsomes assessed as compound remaining at […] preincubated for 5 mins followed by NADPH addition and measured after 45 mins by LC-MS/MS analysis; format: ADME, Microsome; conditions: time 50 min, read-out: Stability
[13] = Stability in human liver microsomes assessed as half-life at […] preincubated for 5 mins followed by NADPH addition and measured upto 45 mins by LC-MS/MS analysis; format: ADME, Microsome; conditions: time < 50 min
[14] = C0 in ICR mouse at 1 mg/kg, iv measured after 24 hrs by LC-MS/MS analysis; format: ADME, organism-based; conditions: in vivo
[15] = Half-life in ICR mouse at 1 mg/kg, iv measured after 24 hrs by LC-MS/MS analysis; format: ADME, organism-based; conditions: in vivo
[16] = Volume of distribution at steady state in ICR mouse at 1 mg/kg, iv measured after 24 hrs by LC-MS/MS analysis; format: ADME, organism-based; conditions: in vivo
JeKo-1 [17] = assay: Induction of apoptosis in human JeKo-1 cells assessed as viable cells at 0.25 uM incubated for 48 hrs by Annexin-V/FITC and PI staining based flow cytometric analysis (reference value: 94.1%); format: functional; conditions: read-out: Activity
JeKo-1 [18] = assay: Induction of apoptosis in human JeKo-1 cells assessed as early apoptotic cells at 0.25 uM incubated for 48 hrs by Annexin-V/FITC and PI staining based flow cytometric analysis (reference value: […]); format: functional
JeKo-1 [19] = assay: Induction of apoptosis in human JeKo-1 cells assessed as early apoptotic cells at 0.5 uM incubated for 48 hrs by Annexin-V/FITC and PI staining based flow cytometric analysis (reference value: […]); format: functional
JeKo-1 [20] = assay: Induction of apoptosis in human JeKo-1 cells assessed as viable cells at 1 uM incubated for 48 hrs by Annexin-V/FITC and PI staining based flow cytometric analysis (reference value: 94.1%); format: functional; conditions: read-out: Activity
JeKo-1 [21] = assay: Induction of apoptosis in human JeKo-1 cells assessed as early apoptotic cells at 1 uM incubated for 48 hrs by Annexin-V/FITC and PI staining based flow cytometric analysis (reference value: […]); format: functional
JeKo-1 [22] = assay: Inhibition of class 1 HDAC in human JeKo-1 cells assessed as increase in histone H3 acetylation incubated for 24 hrs by Western blot analysis; format: cell-based; conditions: dose 0.25-1 µM

- IC50 [1]: 29.5 nM
- inhibition at 10 µM (CYP1A2): 2.52%
- inhibition at 10 µM (CYP2C19): 14%
- IC50 [2]: 20.3 nM
- IC50 (Histone deacetylase 2): 443 nM
- IC50 (Histone deacetylase 4): > 10000 nM
- IC50 (Histone deacetylase 5): > 10000 nM
- IC50 [3]: > 10000 nM
- IC50 [4]: 206 nM
- IC50 [5]: 95.4 nM
- IC50 (MDA-MB-231): 1500 nM
- inhibition at 10 µM (CYP2C9): 37.4%
- inhibition at 10 µM (CYP2D6): 48.8%
- remaining at 0 min [7]: 100%
- remaining at 5 min [8]: 83.8%
- remaining at 0.25 h [9]: 62.6%
- remaining at 0.75 h [10]: 40.2%
- remaining at 0.25 h [11]: 65.8%
- remaining at 0.75 h [12]: 32.8%
- half-life [13]: 0.515 h
- C0 at 24 h [14]: 13700 ng/mL
- half-life [15]: 10 h
- Vdss [16]: 0.719 L/kg
Structure (SMILES): COc1nc(-c2ccc(NC(=O)Nc3ccc(C(=O)NCCCCCC(=O)Nc4ccccc4N)cc3)cc2)nc(N2CCOCC2)n1
- Ratio IC50 (JeKo-1 [6]): 2
- inhibition at 30 µM (hERG): 15.2%
- viability at 0.25 µM (JeKo-1 [17]): 78.5%
- Activity (JeKo-1 [18]): 5.73%
- Activity (JeKo-1 [19]): 17.8%
- viability at 1 µM (JeKo-1 [20]): 3.29%
- Activity (JeKo-1 [21]): 26.1%
- inhibition (JeKo-1 [22]): Dose-Dependent Effect
